Patent publication US11970498B2, “CDK2 inhibitors” (BLUEPRINT MEDICINES CORPORATION, priority 2021, dated 2024)

How the values were obtained:
[1] = molecular target: T1, CDK1/Cyclin B1, GST-tag (Homo sapiens, UniProt P06493); experiment: CDK1/Cyclin B1 biochemical phosphorylation assay (Caliper mobility shift); details: apparent IC50; 1.0 mM ATP or ATP Km; 1.5 nM enzyme; 25° C.
T1 construct: GST
Summary of the method: (§1)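 Caliper electrophoretic separation of substrate and phosphopeptide gave apparent IC50s. Enzymes: CDK1/Cyclin B1 GST-tag 1.5 nM, CDK2/Cyclin E 1.25 nM; ATP 1.0 mM or at Km; 7.5 µM FL-peptide; pH 7.5 HEPES buffer, 1% DMSO; room temperature until 10–20% phosphorylated, then EDTA quench.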

[2] = molecular target: CDK2/Cyclin E (Homo sapiens, UniProt P24941); experiment: CDK2/Cyclin E biochemical phosphorylation assay (Caliper mobility shift); details: apparent IC50; 1.0 mM ATP or ATP Km; 1.25 nM enzyme; 25° C.; read-out: CDK2/cyclin E1 IC50
Summary of the method: as §1

T1 sequence (P06493 whole entry): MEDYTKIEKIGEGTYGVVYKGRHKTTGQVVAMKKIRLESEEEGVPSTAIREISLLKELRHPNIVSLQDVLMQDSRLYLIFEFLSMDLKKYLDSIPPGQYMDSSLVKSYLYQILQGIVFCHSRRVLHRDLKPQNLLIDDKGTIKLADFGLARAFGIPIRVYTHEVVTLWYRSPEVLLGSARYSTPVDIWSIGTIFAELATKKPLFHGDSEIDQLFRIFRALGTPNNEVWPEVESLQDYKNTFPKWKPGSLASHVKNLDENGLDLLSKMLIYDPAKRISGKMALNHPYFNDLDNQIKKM
T1 sequence (P14635 whole entry partner): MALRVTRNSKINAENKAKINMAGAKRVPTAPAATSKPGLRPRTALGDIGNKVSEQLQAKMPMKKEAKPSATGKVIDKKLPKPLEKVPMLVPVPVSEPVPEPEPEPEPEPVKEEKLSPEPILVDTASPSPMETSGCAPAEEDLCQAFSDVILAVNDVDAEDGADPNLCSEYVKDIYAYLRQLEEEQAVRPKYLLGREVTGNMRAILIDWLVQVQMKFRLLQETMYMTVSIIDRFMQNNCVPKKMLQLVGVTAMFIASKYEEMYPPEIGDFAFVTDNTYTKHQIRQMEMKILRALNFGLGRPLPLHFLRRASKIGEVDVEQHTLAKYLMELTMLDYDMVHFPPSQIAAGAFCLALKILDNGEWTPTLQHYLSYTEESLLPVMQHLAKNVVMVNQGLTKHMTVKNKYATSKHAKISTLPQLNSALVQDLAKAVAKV

Row | SMILES | IC50 [1] [nM] | IC50 [2] [nM]
1 | N#CCC1(Cn2ncc3ncc(Nc4cc(OC(F)F)[nH]n4)nc32)CC1 [Example 132, 2-(1-((6-((5-(difluoromethoxy)-1H-pyrazol-3-yl)amino)-1H-pyrazolo[3,4-b]pyrazin-1-yl)methyl)cyclopropyl)acetonitrile] | ≥ 500 | 30 to 100
2 | COc1cc(Nc2cnc3cnn(CC4(C)COC4)c3n2)n[nH]1 [Example 133, N-(5-methoxy-1H-pyrazol-3-yl)-1-((3-methyloxetan-3-yl)methyl)-1H-pyrazolo[3,4-b]pyrazin-6-amine] | ≥ 500 | 20 to 30
3 | FC(F)Oc1cc(Nc2cnc3cnn(Cc4ccno4)c3n2)n[nH]1 [Example 134, N-(5-(difluoromethoxy)-1H-pyrazol-3-yl)-1-(isoxazol-5-ylmethyl)-1H-pyrazolo[3,4-b]pyrazin-6-amine] | ≥ 500 | 10 to 20
4 | COc1cc(Nc2cnc3cnn(Cc4cccnc4)c3n2)n[nH]1 [Example 135, N-(5-methoxy-1H-pyrazol-3-yl)-1-(pyridin-3-ylmethyl)-1H-pyrazolo[3,4-b]pyrazin-6-amine] | ≥ 500 | 10 to 20
5 | COc1cc(Nc2cnc3cnn(CC45CCC(CC4)OC5)c3n2)n[nH]1 [Example 136, 1-((2-oxabicyclo[2.2.2]octan-4-yl)methyl)-N-(5-methoxy-1H-pyrazol-3-yl)-1H-pyrazolo[3,4-b]pyrazin-6-amine] | ≥ 500 | 10 to 20
6 | COc1cc(Nc2cnc3cnn(CC4C5COCC54)c3n2)n[nH]1 (stereo not shown) [Example 138, 1-((3-oxabicyclo[3.1.0]hexan-6-yl)methyl)-N-(5-methoxy-1H-pyrazol-3-yl)-1H-pyrazolo[3,4-b]pyrazin-6-amine] | ≥ 500 | 20 to 30
7 | COc1cc(Nc2cnc3cnn(C[C@@H]4CCCOC4)c3n2)n[nH]1 [Example 139, (S)-N-(5-methoxy-1H-pyrazol-3-yl)-1-((tetrahydro-2H-pyran-3-yl)methyl)-1H-pyrazolo[3,4-b]pyrazin-6-amine] | ≥ 500 | 10 to 20
8 | COc1cc(Nc2cnc3cnn(C[C@H]4CCCOC4)c3n2)n[nH]1 [Example 140, (R)-N-(5-methoxy-1H-pyrazol-3-yl)-1-((tetrahydro-2H-pyran-3-yl)methyl)-1H-pyrazolo[3,4-b]pyrazin-6-amine] | ≥ 500 | 10 to 20
9 | C[C@@H](CO)Cn1ncc2ncc(Nc3cc(OC(F)F)[nH]n3)nc21 [Example 198, (R)-3-(6-((5-(difluoromethoxy)-1H-pyrazol-3-yl)amino)-1H-pyrazolo[3,4-b]pyrazin-1-yl)-2-methylpropan-1-ol] | ≥ 500 | 30 to 100
10 | C[C@H](CO)Cn1ncc2ncc(Nc3cc(OC(F)F)[nH]n3)nc21 [Example 199, (S)-3-(6-((5-(difluoromethoxy)-1H-pyrazol-3-yl)amino)-1H-pyrazolo[3,4-b]pyrazin-1-yl)-2-methylpropan-1-ol] | ≥ 500 | 30 to 100
11 | FC(F)Oc1cc(Nc2cnc3cnn(C[C@H]4CCCNC4)c3n2)n[nH]1 [Example 200, (S)—N-(5-(difluoromethoxy)-1H-pyrazol-3-yl)-1-(piperidin-3-ylmethyl)-1H-pyrazolo[3,4-b]pyrazin-6-amine] | ≥ 500 | 20 to 30
12 | OC[C@@H](c1ccccc1)n1ncc2ncc(Nc3cc(OC(F)F)[nH]n3)nc21 [Example 203, (R)-2-(6-((5-(difluoromethoxy)-1H-pyrazol-3-yl)amino)-1H-pyrazolo[3,4-b]pyrazin-1-yl)-2-phenylethan-1-ol] | ≥ 500 | 30 to 100
13 | OC[C@@H](c1cccnc1)n1ncc2ncc(Nc3cc(OC(F)F)[nH]n3)nc21 [Example 204, (R)-2-(6-((5-(difluoromethoxy)-1H-pyrazol-3-yl)amino)-1H-pyrazolo[3,4-b]pyrazin-1-yl)-2-(pyridin-3-yl)ethan-1-ol] | ≥ 500 | 20 to 30
14 | OCC1CC(n2ncc3ncc(Nc4cc(OC(F)F)[nH]n4)nc32)C1 (stereo not shown) [Example 219, (3-(6-((5-(difluoromethoxy)-1H-pyrazol-3-yl)amino)-1H-pyrazolo [3,4-b]pyrazin-1-yl)cyclobutyl)methanol] | ≥ 500 | 20 to 30
15 | O[C@H]1C[C@H](Cn2ncc3ncc(Nc4cc(OC(F)F)[nH]n4)nc32)C1 [Example 220, (1r,3r)-3-((6-((5-(difluoromethoxy)-1H-pyrazol-3-yl)amino)-1H-pyrazolo[3,4-b]pyrazin-1-yl)methyl)cyclobutan-1-ol] | ≥ 500 | 30 to 100
16 | FC(F)Oc1cc(Nc2cnc3cnn(CC45COCC4C5)c3n2)n[nH]1 (stereo not shown) [Example 221, 1-(3-oxabicyclo[3.1.0]hexan-1-ylmethyl)-N-(5-(difluoromethoxy)-1H-pyrazol-3-yl)-1H-pyrazolo[3,4-b]pyrazin-6-amine] | ≥ 500 | 30 to 100
17 | FC(F)Oc1cc(Nc2cnc3cnn(Cc4cccnn4)c3n2)n[nH]1 [Example 222, N-(5-(difluoromethoxy)-1H-pyrazol-3-yl)-1-(pyridazin-3-ylmethyl)-1H-pyrazolo[3,4-b]pyrazin-6-amine] | ≥ 500 | ≤ 10
18 | FC(F)Oc1cc(Nc2cnc3cnn(Cc4cnccn4)c3n2)n[nH]1 [Example 223, N-(5-(difluoromethoxy)-1H-pyrazol-3-yl)-1-(pyrazin-2-ylmethyl)-1H-pyrazolo[3,4-b]pyrazin-6-amine] | ≥ 500 | 20 to 30
19 | [2H]C([2H])(c1cccnc1)n1ncc2ncc(Nc3cc(OC(F)F)[nH]n3)nc21 [Example 224, N-(5-(difluoromethoxy)-1H-pyrazol-3-yl)-1-(pyridin-3-ylmethyl-d2)-1H-pyrazolo[3,4-b]pyrazin-6-amine] | ≥ 500 | ≤ 10
20 | [2H]C([2H])(C)n1ncc2ncc(Nc3cc(OC(F)F)[nH]n3)nc21 [Example 225, N-(5-(difluoromethoxy)-1H-pyrazol-3-yl)-1-(ethyl-1,1-d2)-1H-pyrazolo[3,4-b]pyrazin-6-amine] | ≥ 500 | 30 to 100
21 | [2H]C([2H])([2H])Oc1cc(Nc2cnc3cnn(Cc4cccnc4)c3n2)n[nH]1 [Example 227, N-(5-(methoxy-d3)-1H-pyrazol-3-yl)-1-(pyridin-3-ylmethyl)-1H-pyrazolo[3,4-b]pyrazin-6-amine] | ≥ 500 | 10 to 20

Continued, values first:

Row | IC50 [1] [nM] | IC50 [2] [nM] | SMILES
22 | ≥ 500 | ≤ 10 | COc1cc(Nc2cnc3c(F)nn([C@@H](C)C4CCOCC4)c3n2)n[nH]1 [Example 123, (S)-3-fluoro-N-(5-methoxy-1H-pyrazol-3-yl)-1-(1-(tetrahydro-2H-pyran-4-yl)ethyl)-1H-pyrazolo[3,4-b]pyrazin-6-amine]
23 | 100 to 500 | ≤ 10 | C[C@@H](C1CCOCC1)n1nc(F)c2ncc(Nc3cc(OC(F)F)[nH]n3)nc21 [Example 124, (S)-N-(5-(difluoromethoxy)-1H-pyrazol-3-yl)-3-fluoro-1-(1-(tetrahydro-2H-pyran-4-yl)ethyl)-1H-pyrazolo[3,4-b]pyrazin-6-amine]
24 | ≥ 500 | 20 to 30 | OC1(Cn2ncc3ncc(Nc4cc(OC(F)F)[nH]n4)nc32)CCC1 [Example 125, 1-((6-((5-(difluoromethoxy)-1H-pyrazol-3-yl)amino)-1H-pyrazolo[3,4-b]pyrazin-1-yl)methyl)cyclobutan-1-ol]
25 | < 100 | ≤ 10 | FC(F)Oc1cc(Nc2cnc3cnn(C[C@H]4C[C@@H]5[C@H](C4)C5(F)F)c3n2)n[nH]1 [Example 126, 1-(((1R,3r,5S)-6,6-difluorobicyclo[3.1.0]hexan-3-yl)methyl)-N-(5-(difluoromethoxy)-1H-pyrazol-3-yl)-1H-pyrazolo[3,4-b]pyrazin-6-amine]
26 | ≥ 500 | 20 to 30 | CC(C)(C1CCOCC1)n1ncc2ncc(Nc3cc(OC(F)F)[nH]n3)nc21 [Example 127, N-(5-(difluoromethoxy)-1H-pyrazol-3-yl)-1-(2-(tetrahydro-2H-pyran-4-yl)propan-2-yl)-1H-pyrazolo[3,4-b]pyrazin-6-amine]
27 | ≥ 500 | 30 to 100 | FC(F)Oc1cc(Nc2cnc3cnn(Cc4cccc5[nH]ncc45)c3n2)n[nH]1 [Example 128, 1-((1H-indazol-4-yl)methyl)-N-(5-(difluoromethoxy)-1H-pyrazol-3-yl)-1H-pyrazolo[3,4-b]pyrazin-6-amine]
28 | 100 to 500 | ≤ 10 | FC(F)Oc1cc(Nc2cnc3cnn(CCc4cn[nH]c4)c3n2)n[nH]1 [Example 129, 1-(2-(1H-pyrazol-4-yl)ethyl)-N-(5-(difluoromethoxy)-1H-pyrazol-3-yl)-1H-pyrazolo[3,4-b]pyrazin-6-amine]
29 | 100 to 500 | ≤ 10 | FC(F)Oc1cc(Nc2cnc3cnn(CCc4ccncc4)c3n2)n[nH]1 [Example 130, N-(5-(difluoromethoxy)-1H-pyrazol-3-yl)-1-(2-(pyridin-4-yl)ethyl)-1H-pyrazolo[3,4-b]pyrazin-6-amine]
30 | ≥ 500 | 30 to 100 | Cn1cncc1Cn1ncc2ncc(Nc3cc(OC(F)F)[nH]n3)nc21 [Example 131, N-(5-(difluoromethoxy)-1H-pyrazol-3-yl)-1-((1-methyl-1H-imidazol-5-yl)methyl)-1H-pyrazolo[3,4-b]pyrazin-6-amine]
31 | 100 to 500 | ≤ 10 | COc1cc(Nc2cnc3cnn(Cc4cccnc4F)c3n2)n[nH]1 [Example 137, 1-((2-fluoropyridin-3-yl)methyl)-N-(5-methoxy-1H-pyrazol-3-yl)-1H-pyrazolo[3,4-b]pyrazin-6-amine]
32 | 100 to 500 | ≤ 10 | [2H]C([2H])(C1CCOCC1)n1ncc2ncc(Nc3cc(OC(F)F)[nH]n3)nc21 [Example 226, N-(5-(difluoromethoxy)-1H-pyrazol-3-yl)-1-((tetrahydro-2H-pyran-4-yl)methyl-d2)-1H-pyrazolo[3,4-b]pyrazin-6-amine]
